From PMC7730452, “Citrullination-Resistant LL-37 Is a Potent Antimicrobial Agent in the Inflammatory Environment High in Arginine Deiminase Activity” (International Journal of Molecular Sciences, 2020)
In brackets after ≈: the same amount, converted by molar mass. Where two headings read alike, the source gives them in different places.

Legend:
[1] = target: V8 protease (Staphylococcus aureus, UniProt P0C1U8); assay: Degradation by protease, SDS-PAGE; details: 5 μg peptide, 0.05 μg protease, PBS, 25 μL, 37 °C, 1 h and 18 h, Coomassie
V8 protease, sequence (P0C1U8 69-336): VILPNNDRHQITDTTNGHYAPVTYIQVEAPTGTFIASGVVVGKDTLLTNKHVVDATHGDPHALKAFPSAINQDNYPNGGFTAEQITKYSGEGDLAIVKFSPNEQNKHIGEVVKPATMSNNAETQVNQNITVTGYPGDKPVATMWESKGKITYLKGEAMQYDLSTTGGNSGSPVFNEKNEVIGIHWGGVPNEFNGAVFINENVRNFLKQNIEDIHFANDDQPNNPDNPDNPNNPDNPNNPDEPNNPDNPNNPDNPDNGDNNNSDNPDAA
Description: (§1) After incubation samples were immediately frozen at −80 °C. Samples were separated on SDS-PAGE under denaturing condition in 4–16% gels. After separation, the gels underwent colloid Coomassie staining.

[2] = target: aureolysin (Staphylococcus aureus, UniProt P81177); assay: Degradation by protease, SDS-PAGE; details: 5 μg peptide, 0.05 μg protease, PBS, 25 μL, 37 °C, 1 h and 18 h, Coomassie
aureolysin, sequence (P81177 209-509): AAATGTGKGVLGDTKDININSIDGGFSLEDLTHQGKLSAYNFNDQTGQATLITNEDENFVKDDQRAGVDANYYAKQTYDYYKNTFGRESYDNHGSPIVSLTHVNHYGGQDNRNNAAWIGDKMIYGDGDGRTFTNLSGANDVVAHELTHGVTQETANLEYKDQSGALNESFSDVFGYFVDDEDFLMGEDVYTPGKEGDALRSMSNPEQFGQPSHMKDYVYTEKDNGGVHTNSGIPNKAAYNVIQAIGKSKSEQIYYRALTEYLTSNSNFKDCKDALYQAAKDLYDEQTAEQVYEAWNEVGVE
Description: as §1

[3] = tested on: venous leg ulcers; details: patients with venous leg ulcers; cited from earlier work
Excerpt: Current research is partly focused on peptide-based compounds.

[4] = cited from earlier work
Excerpt: The slower hydrolysis rate of homoarginine-containing peptides compared with their arginine-containing counterparts depend ...

[5] = tested on: HaCaT cells; assay: LDH release cytotoxicity assay; type: cell-based, human; details: 24 h, n = 2
Description: The cell line of human immortalized keratinocytes (HaCaT) was obtained from American Type Culture Collection (ATCC, Manassas, VA, USA) and cultured in DMEM (Gibco, Life Technologies, Paisley, UK) supplemented with 10% heat-inactivated fetal bovine serum (FBS) and PEST (100 U/mL penicillin and 100 U/mL streptomycin) at 37 °C in humidified 5% CO2 atmosphere. Cells were passaged every 4–5 days. To assess the effect of peptides on the integrity of the plasma membrane, the LDH release assay was performed using the CytoTox96 nonradioactive cytotoxicity assay kit (Promega, Madison, WI, USA) according to the manufacturer’s instructions. Cytotoxicity was calculated with the formula: % cytotoxicity = 100 × (experimental LDH release/maximum LDH release), where maximum LDH release occurs after the addition of lysis solution (Triton X-100). Relative amounts of LDH release were measured (absorbance at 490 nm) using FlexStation 3 Multimode Microplate Reader (Molecular Device, Wokingham, UK). All assays were performed in duplicate.

[6] = target: cathepsin G (Homo sapiens, UniProt P08311)
cathepsin G, sequence (P08311 21-255): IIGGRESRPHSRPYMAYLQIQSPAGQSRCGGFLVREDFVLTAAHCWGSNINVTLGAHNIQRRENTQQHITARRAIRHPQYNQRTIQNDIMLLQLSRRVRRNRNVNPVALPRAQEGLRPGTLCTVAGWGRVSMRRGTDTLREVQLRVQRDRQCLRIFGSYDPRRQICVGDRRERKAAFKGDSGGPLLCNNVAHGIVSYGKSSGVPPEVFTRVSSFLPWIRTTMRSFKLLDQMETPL
Description: as §1

[7] = tested on: P. aeruginosa; type: cell-based, Pseudomonas aeruginosa (clinical isolate)
Description: (§2) Escherichia coli ATCC 25922 and Pseudomonas aeruginosa (clinical isolate) were inoculated from stocks into 20 mL LB Broth Lennox, while Staphylococcus aureus Δaur (8325-4 Δaur) into 20 mL TSB and grown overnight at 37 °C under constant rotation (180 rpm) to a mid-logarithmic growth phase. Then they were centrifuged at 5000× g for 5 min, washed in PBS, and resuspended in PBS to the desired OD (600 nm).
(§3) Mueller-Hinton broth (MHB, Sigma-Aldrich) was used as the working medium for all bacterial strains. Briefly, inoculum was prepared from freshly grown cultures of bacteria being at their exponential phase of growth. Each well of 96-well plates containing 100 μL of serially diluted peptides in PBS at desired concentration was inoculated with 100 μL of 1 × 10^5 (CFU) mL^−1 of bacterial suspensions. Then, plates were incubated overnight at 37 °C and absorbance was read at 590 nm in a Flex Station 3 multi-mode microplate reader (Molecular Devices). An absorbance reading in wells without a peptide representing unrestrained bacterial growth was taken as positive control (100% bacterial survival). Readings in wells without bacteria were taken as negative controls. All measurements were run in triplicates.

[8] = tested on: E. coli; type: cell-based, Escherichia coli ATCC 25922
Description: as §2, §3

[9] = target: recombinant human PAD4 (Homo sapiens, UniProt Q9UM07)
recombinant human PAD4, sequence (Q9UM07 whole entry): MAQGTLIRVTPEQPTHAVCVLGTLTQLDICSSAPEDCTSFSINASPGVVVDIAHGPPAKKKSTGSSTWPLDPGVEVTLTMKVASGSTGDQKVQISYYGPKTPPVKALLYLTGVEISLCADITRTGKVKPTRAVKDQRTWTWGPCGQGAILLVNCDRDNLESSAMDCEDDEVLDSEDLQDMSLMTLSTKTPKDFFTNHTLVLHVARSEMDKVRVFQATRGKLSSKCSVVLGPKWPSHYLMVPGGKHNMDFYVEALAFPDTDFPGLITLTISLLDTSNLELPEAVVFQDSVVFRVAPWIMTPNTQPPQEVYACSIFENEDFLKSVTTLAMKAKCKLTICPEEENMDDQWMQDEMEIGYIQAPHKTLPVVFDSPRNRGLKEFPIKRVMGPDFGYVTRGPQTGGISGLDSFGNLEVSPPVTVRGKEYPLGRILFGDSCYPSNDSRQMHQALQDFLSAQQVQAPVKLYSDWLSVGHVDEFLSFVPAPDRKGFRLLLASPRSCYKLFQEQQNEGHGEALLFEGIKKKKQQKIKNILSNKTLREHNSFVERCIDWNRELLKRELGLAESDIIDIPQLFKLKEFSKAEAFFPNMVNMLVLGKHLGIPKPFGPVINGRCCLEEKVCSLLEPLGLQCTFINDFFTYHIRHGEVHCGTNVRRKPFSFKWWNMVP
Description: PAD4 activity was determined on N-α-benzoyl-L-arginine ethyl ester hydrochloride (BAEE) substrate with colorimetric assay [33].
Citrullination was terminated by snap-freezing the samples.
Reaction was terminated by addition of TFA (final concentration 0.1%) (Sigma) and samples were analyzed via HPLC. Separation was achieved on a reverse-phase column Aeris XB-C18, 3.6 μm, 4.6/150 (Phenomenex) connected to ÄKTAmicro (GE Healthcare). Peptides were eluted in the gradient of Phase A (0.1% TFA in water) and Phase B (80% acetonitrile, 0.08% TFA in water) and monitored at 215 nm.

[10] = target: neutrophil elastase (Homo sapiens, UniProt P08246); details: 5 μg peptide, 0.05 μg protease, PBS, 25 μL, 37 °C, 1 h and 18 h; SDS-PAGE, Coomassie
neutrophil elastase, sequence (P08246 30-267): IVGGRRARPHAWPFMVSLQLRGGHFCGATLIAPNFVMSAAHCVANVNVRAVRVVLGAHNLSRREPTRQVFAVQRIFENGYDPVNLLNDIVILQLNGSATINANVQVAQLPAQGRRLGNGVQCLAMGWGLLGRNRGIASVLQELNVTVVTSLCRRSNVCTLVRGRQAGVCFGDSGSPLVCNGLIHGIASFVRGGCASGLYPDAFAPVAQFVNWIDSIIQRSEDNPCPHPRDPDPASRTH
Description: as §1

Row | Compound | Degradation by V8 protease [1] | Degradation by aureolysin [2] | Safety and tolerability [3] | Degradation in NETs [4] | Toxicity, LDH release ([5]; peptide 10 μg/mL) | Toxicity, LDH release ([5]; peptide 25 μg/mL) | Toxicity, LDH release ([5]; peptide 75 μg/mL) | Degradation by cathepsin G ([6]; 5 μg peptide, 0.5 μg protease, PBS, 25 μL, 37 °C, 1 h and 18 h, SDS-PAGE, Coomassie) | MIC (minimal inhibitory concentration) [7] [µg/mL] | MIC (minimal inhibitory concentration) [8] [µg/mL] | Modification (citrullination) by PAD4 [9] | Degradation by neutrophil elastase [10] | Degradation by cathepsin G [6]
1 | CC[C@H](C)[C@H](NC(=O)[C@H](CCCCN)NC(=O)[C@H](CCC(=O)O)NC(=O)[C@H](CCCCN)NC(=O)[C@H](CO)NC(=O)[C@H](CCCCN)NC(=O)[C@H](CCCNC(=N)N)NC(=O)[C@H](Cc1ccccc1)NC(=O)[C@H](Cc1ccccc1)NC(=O)[C@H](CC(=O)O)NC(=O)CNC(=O)[C@H](CC(C)C)NC(=O)[C@@H](N)CC(C)C)C(=O)NCC(=O)N[C@@H](CCCCN)C(=O)N[C@@H](CCC(=O)O)C(=O)N[C@@H](Cc1ccccc1)C(=O)N[C@@H](CCCCN)C(=O)N[C@@H](CCCNC(=N)N)C(=O)N[C@H](C(=O)N[C@H](C(=O)N[C@@H](CCC(N)=O)C(=O)N[C@@H](CCCNC(=N)N)C(=O)N[C@H](C(=O)N[C@@H](CCCCN)C(=O)N[C@@H](CC(=O)O)C(=O)N[C@@H](Cc1ccccc1)C(=O)N[C@@H](CC(C)C)C(=O)N[C@@H](CCCNC(=N)N)C(=O)N[C@@H](CC(N)=O)C(=O)N[C@@H](CC(C)C)C(=O)N[C@H](C(=O)N1CCC[C@H]1C(=O)N[C@@H](CCCNC(=N)N)C(=O)N[C@H](C(=O)N[C@@H](CCC(=O)O)C(=O)N[C@@H](CO)C(=O)O)[C@@H](C)O)C(C)C)[C@@H](C)CC)C(C)C)[C@@H](C)CC [LL-37] | similarly sensitive | similarly sensitive | no safety or tolerability concerns were noted | gradually degraded | did not compromise the membrane permeability | did not compromise the membrane permeability | low, but still significant, release of LDH | did not differ |  |  |  |  | 
2 | CC[C@H](C)[C@H](NC(=O)[C@H](CCCCN)NC(=O)[C@H](CCC(=O)O)NC(=O)[C@H](CCCCN)NC(=O)[C@H](CO)NC(=O)[C@H](CCCCN)NC(=O)[C@H](CCCCNC(=N)N)NC(=O)[C@H](Cc1ccccc1)NC(=O)[C@H](Cc1ccccc1)NC(=O)[C@H](CC(=O)O)NC(=O)CNC(=O)[C@H](CC(C)C)NC(=O)[C@@H](N)CC(C)C)C(=O)NCC(=O)N[C@@H](CCCCN)C(=O)N[C@@H](CCC(=O)O)C(=O)N[C@@H](Cc1ccccc1)C(=O)N[C@@H](CCCCN)C(=O)N[C@@H](CCCCNC(=N)N)C(=O)N[C@H](C(=O)N[C@H](C(=O)N[C@@H](CCC(N)=O)C(=O)N[C@@H](CCCCNC(=N)N)C(=O)N[C@H](C(=O)N[C@@H](CCCCN)C(=O)N[C@@H](CC(=O)O)C(=O)N[C@@H](Cc1ccccc1)C(=O)N[C@@H](CC(C)C)C(=O)N[C@@H](CCCCNC(=N)N)C(=O)N[C@@H](CC(N)=O)C(=O)N[C@@H](CC(C)C)C(=O)N[C@H](C(=O)N1CCC[C@H]1C(=O)N[C@@H](CCCCNC(=N)N)C(=O)N[C@H](C(=O)N[C@@H](CCC(=O)O)C(=O)N[C@@H](CO)C(=O)O)[C@@H](C)O)C(C)C)[C@@H](C)CC)C(C)C)[C@@H](C)CC [hArg-LL-37] | similarly sensitive | similarly sensitive |  |  |  |  |  |  | 50 (≈ 11 µM) | 50 (≈ 11 µM) | did not evidently modify | degraded more rapidly by neutrophil elastase than LL-37 | did not differ
